According to patent US11324858B2, “Biomaterials for enhanced implant-host integration” (Massachusetts Institute of Technology, priority 2012, dated 2022):
Entries after “also recorded” stand apart in the source; their conditions may differ.

Tests used:
[1] = system: hepatic aggregates; assay: Diffusion of DAPI through ligated constructs after i.p. injection; format: in vivo, mouse; details: post i.p. injection, EC Cord Ligated procedure
Experimental: FIGS. 16A-16B show the diffusion of small-molecule DAPI through ligated constructs. Constructs containing both hepatic aggregates and cords were implanted using procedures identical to those of the “EC Cord Ligated” control. Following implantation, the animals were injected i.p. with DAPI using the same volume and concentration typically used for luciferin administration. […] By 20 min post injection, DAPI-positive hepatic aggregates were identified throughout the constructs as shown by FIG. 16B.
To explore whether this vascularization strategy has potential to enable applications such as human tissue replacement or humanized mouse models, it was tested whether coimplantation of EC cords can support primary human hepatocytes. […] To test whether enhanced hepatic function in animals with EC cords was the result of direct paracrine signaling between adjacent EC cords and hepatocytes or of improved access to a blood supply, the parametrial fat pad was severed upstream of the constructs immediately after implantation to reduce blood supply (“EC Cord Ligated”; FIG. 4E). Bioluminescence imaging was performed 20 min after luciferin injection at each time point, which was confirmed to be adequate time for diffusionbased permeation of the construct in ligated control tissues by DAPI (a small molecule similar in size to luciferin; FIG. 16).

[2] = system: HUVECs and 10T1/2s; assay: Cord formation/contraction of HUVEC and 10T1/2 cells in collagen within PDMS microchannels, with contractility inhibitors; format: cell-based, human, mouse; details: treated immediately after seeding; 20 μM blebbistatin or 25 μM Y27632
Experimental: To test whether patterned endothelial cell (EC) cords induce vivo vessel formation in vivo, EC cords embedded in a fibrin matrix were implanted into the intraperitoneal space of nude mice (schematic, FIG. 1A). The cords were first prepared by seeding HUVECs and 10T1/2 cells suspended within collagen pre-polymer into a PDMS template and allowed to contract and remodel the collagen over a period of 4 hours. During this maturation period, the cells contracted against the matrix and each other, which caused the cords to shrink in diameter to approximately 50% of their original size (FIG. 1B). The HUVECs and 10T1/2 cells were mobile within the cords and also underwent some sorting during this time, with many of the 10T1/2 localizing to the periphery of the cords (FIG. 1C). […] After allowing the cords to contract, they were embedded into a larger fibrin gel (FIG. 1E) and prepared for implantation by attaching the samples to a polypropylene surgical mesh. The cords were implanted adjacent to a fat pad into athymic mice and resected at various time points. Tissues resected after 7 days, sectioned and stained with H&E indicated the presence of blood in areas where EC cords were initially present (FIG. 1F).
Micropatterning of Endothelial cell cords. EC cords were micropatterned as previously described (2). […]

SMILES	time to permeate construct and stain hepatic aggregates [1] [min]	cord formation / cord contraction under contractility inhibitor [2]
N=C(N)c1ccc(-c2cc3ccc(C(=N)N)cc3[nH]2)cc1 [DAPI]	≤ 20	–
C[C@@H](N)[C@H]1CC[C@H](C(=O)Nc2ccncc2)CC1 [Y27632]	–	failed to form cords
Cc1ccc2c(c1)C(=O)C1(O)CCN(c3ccccc3)C1=N2 (stereo not drawn) [blebbistatin]	–	prevented their contraction and elongation of the cells along the collagen; also recorded: failed to form cords
